According to patent US7666901B2, “Analogs of 17-hydroxywortmannin as PI3K inhibitors” (Wyeth, priority 2004, dated 2010):
In brackets after ≈: the same amount, converted by molar mass.

Columns and labels:
[1] = biological target: T1, Human TOR (Homo sapiens, UniProt P42345); test: Human TOR (mTOR) kinase assay, DELFIA format; type: biochemical
T1 construct: FLAG
Description: The PI3K/AKT/TOR pathway is critical for cell proliferation, growth, survival, and angiogensis. Accordingly, compounds of the present invention may also be useful to inhibit TOR activity. Similar in vivo and in vitro assays to those described above with reference to PI3K can be used to determine the minimum concentration of compound sufficient to inhibit TOR. A human TOR assay and a Rat1-IGF1 assay as described in Examples 67 and 68, respectively was performed with some embodiments of the invention. The results of these assays are shown below in Tables 1 and 2.
Human TOR assays (See Toral-Barza, et al. Biochem Biophys. Res. Commun. 2005 Jun. 24; 332(1):304-10) with purified enzyme are performed in 96-well plates by DELFIA format as follows. Enzymes are first diluted in kinase assay buffer (10 mM Hepes (pH 7.4), 50 mM NaCl, 50 mM b-glycerophosphate, 10 mM MnCl2, 0.5 mM DTT, 0.25 mM microcystin LR, and […] BSA). To each well, 12 mL of the diluted enzyme is mixed briefly with 0.5 mL test inhibitor or control vehicle dimethylsulfoxide (DMSO). The kinase reaction is initiated by adding 12.5 mL kinase assay buffer containing ATP and His6-S6K to give a final reaction volume of 25 mL containing 800 ng/mL FLAG-TOR, […] ATP and […] His6-S6K. The reaction plate is incubated for 2 hours (linear at 1-6 hours) at room temperature with gentle shaking and then terminated by adding 25 mL Stop buffer (20 mM Hepes (pH 7.4), 20 mM EDTA, 20 mM EGTA). The DELFIA detection of the phosphorylated (Thr-389) His6-S6K is performed at room temperature using a monoclonal anti-P(T389)-p70S6K antibody (1A5, Cell Signaling) labeled with Europium-N1-ITC (Eu) (10.4 Eu per antibody, PerkinElmer). The DELFIA Assay buffer and Enhancement solution can be purchased from PerkinElmer. 45 mL of the terminated kinase reaction mixture is transferred to a MaxiSorp plate (Nunc) containing 55 mL PBS. The His6-S6K is allowed to attach for 2 hours after which the wells are aspirated and washed once with PBS. 100 mL of DELFIA Assay buffer with 40 ng/mL Eu-P(T389)-S6K antibody is added. The antibody binding is continued for 1 hour with gentle agitation. The wells are then aspirated and washed 4 times with PBS containing 0.05% Tween-20 (PBST). […] of DELFIA Enhancement solution is added to each well and the plates are read in a PerkinElmer Victor model plate reader. Data obtained is used to calculate enzymatic activity and enzyme inhibition by potential inhibitors.

[2] = tested on: MDA468 (human breast cancer cell); test: Cell proliferation (MTS) assay, MDA468; type: cell-based; conditions: three days treatment; for IC50: Homo sapiens, 72 h
Description: (§1) Results of cell proliferation assays for exemplary compounds are shown below in Tables 1 and 2. Cell lines LNCaP (human prostate carcinoma), MDA468 (human breast cancer cell), MDA435 (human breast adenocarcinoma), and DU145 (human prostate carcinoma[…]) were purchased from American Type Culture Collection (ATCC) (Rockville, Md.). Cells were cultured in RPMI Medium 1640 containing 10% fetal bovine serum (FBS) in a 37° C. incubator containing 5% CO2. All cell culture reagents were purchased from Gibco-BRL (Grand Island, N.Y.). Cells were plated in 96-well culture plates at about 3000 cells per well. One day following plating, compounds or vehicle controls (buffer only) were added to cells. Proliferation assays were performed three days post initiation of treatment.
(§2) For a non-radioactive cell proliferation assay, viable cell densities are determined by measuring metabolic conversion (by viable cells) of the dye MTS tatrazolium dye, a cell proliferation assay known by one of skill in the art (MTS assay), a previously established cell proliferation assay. The assay is performed using an assay kit (Promega Corp., Madison, Wis.). The assay plates are incubated for 1-2 hours, and the results are read in a 96-well format plate reader by measuring absorbance at 490 nm. Effect of each compound is calculated as a percentage of control cell growth obtained from vehicle-treated cells grown in the same plate.

[3] = tested on: DU145 (human prostate carcinoma/lymphocytic leukemia); test: Cell proliferation (MTS) assay, DU145; type: cell-based; conditions: three days treatment; for IC50: Homo sapiens, DU-145, 72 h
Description: as §1, §2

[4] = tested on: LNCaP (human prostate carcinoma); test: Cell proliferation (MTS) assay, LNCaP; type: cell-based; conditions: three days treatment; for IC50: Homo sapiens, LNCaP, 72 h
Description: as §1, §2

[5] = tested on: MDA435 (human breast adenocarcinoma); test: Cell proliferation (MTS) assay, MDA435; type: cell-based; conditions: three days treatment; for IC50: Homo sapiens, MDA435, 72 h
Description: as §1, §2

[6] = tested on: phosphor-AKT (S473) in Rat1 cells; test: Rat1-IGF1 assay (IGF-1 induced phospho-AKT immunoblot); type: cell-based, rat; conditions: Rattus norvegicus
Description: Rat1 cells are plated in 6-well culture plates and serum-starved for 24 hours. Serum-starved cells are treated either with control vehicle or with various concentrations of 17-HWT for 2 hours, stimulated by IGF-1 (100 ng/mL) for 30 minutes. Total cellular lysates are prepared using NuPAGE-LDS sample buffer (Invitrogen), sonicated and then clarified by centrifugation. Equal amounts of proteins are subject to immunoblotting analysis using NuPAGE electrophoresis system and probed with phosphor-AKT (S473), total AKT antibodies (Signaling Technology).

[7] = tested on: T2, PI3K; test: Fluorescence polarization assay for PI3K; type: biochemical; conditions: Table 1
T2 construct: PI3K FP IC50
Description: This assay is used to determine the IC50 of compounds of the present invention as it identifies inhibitors of PI3 kinase by measuring inhibition.
The assay is run by placing 5 μL of diluted enzyme per well, then 5 μL of diluted compound (or 9.5 μL enzyme then 0.5 μL compound in DMSO) is added and mixed. Then, 10 μL substrate is added to start the reaction. The samples are incubated 30-60 minutes, then the reaction is stopped by adding 20 μL stop/detector mix.
PI3K is diluted with reaction buffer (e.g., 5 μL or 7.5 μL PI3K into 620 μL reaction buffer), and 5 μL of diluted enzyme is used per well. 5 μL reaction buffer or drug diluted in buffer (e.g., 4 μL/100 so final DMSO is 1% in reaction) is added to each. The samples are mixed by pipetting up and down. Alternatively, the enzyme can be diluted to 1215 μL. In this case 9.8 μL is added per well and 0.2 μL compound is added in DMSO.
To prepare 1 mL of substrate solution, 955 μL reaction buffer, 40 μL PIP2, and 2.5 μL ATP are mixed. 10 μL of substrate is added to each well to start the reaction.
Stop/detector mix is prepared by mixing 4 μL Red detector and 1.6 μL or 2.0 μL GST-GRP with 1 mL Stop buffer, which results in 10 nM probe and 70 nM GST-GRP). 20 μL of the stop/detector mix is added to each well to stop the reaction. The plates are read after 30-90 minutes keeping the red probe solutions dark.
For the zero time point, stop/detector mix is added to the enzyme just before adding substrate. For an extra control, stop/detector mix is added to buffer (no enzyme) and substrate or to just buffer (no substrate).
The recommended reaction has 0.06 μL per 20 μL (0.015 μg/20 μL) or 0.01125 μg/15 μL or 0.75 μg/mL.
Plates are read on machines with filters for Tamra. The units are mP with no enzyme controls reading app 190-220 mP units. Fully active enzyme reduces fluorescence polarization down to 70-100 mP after 30 minutes. An active cpd raises the mP values halfway to control or to 120-150 mP units.

| IC50 ([1]; Table 1) [µM] | IC50 ([2]; Table 1) [µg/mL] | IC50 ([3]; Table 1) [µg/mL] | IC50 ([4]; Table 1) [µg/mL] | IC50 ([5]; Table 1) [µg/mL] | IC50 ([6]; Table 1) [µg/mL] | PI3K FP IC50 [7] [µg/mL] | Compound | also measured |
| --- | --- | --- | --- | --- | --- | --- | --- | --- |
| 0.89 | 1.8 | 15 | 1 | > 15 | 0.02 |  | COC[C@H]1OC(=O)/C(=C/N2CCN(Cc3ccccc3)CC2)C2=C(O)C(=O)C3=C([C@H](OC(C)=O)C[C@@]4(C)C3CC[C@@H]4O)[C@]21C (stereo partly drawn) [Compound 10, (1E,4S,4aR,5R,6aS,7S)-1-[(4-benzylpiperazin-1-yl)methylene]-7,11-dihydroxy-4-(methoxymethyl)-4a,6a-dimethyl-2,10-dioxo-1,2,4,4a,5,6,6a,7,8,9,9a,10-dodecahydroindeno[4,5-h]isochromen-5-yl acetate] |  |
| 86.5 | 10 | 13 | 9.5 | 15 | > 0.1 |  | COC[C@H]1OC(=O)/C(=C/N(C)C2CCCCC2)C2=C(O)C(=O)C3=C([C@H](OC(C)=O)C[C@@]4(C)C3CC[C@@H]4O)[C@]21C (stereo partly drawn) [Compound 9, (1E,4S,4aR,5R,6aS,7S)-1-{[cyclohexyl(methyl)amino]methylene}-7,11-dihydroxy-4-(methoxymethyl)-4a,6a-dimethyl-2,10-dioxo-1,2,4,4a,5,6,6a,7,8,9,9a,10-dodecahydroindeno[4,5-h]isochromen-5-yl acetate] |  |
| 3.19 | 6 | > 15 | 2.8 | > 15 | 0.1 |  | COC[C@H]1OC(=O)/C(=C/N2CCc3ccccc3C2)C2=C(O)C(=O)C3=C([C@H](OC(C)=O)C[C@@]4(C)C3CC[C@@H]4O)[C@]21C (stereo partly drawn) [Compound 12, (1E,4S,4aR,5R,6aS,7S)-1-(3,4-dihydroisoquinolin-2(1H)-ylmethylene)-7,11-dihydroxy-4-(methoxymethyl)-4a,6a-dimethyl-2,10-dioxo-1,2,4,4a,5,6,6a,7,8,9,9a,10-dodecahydroindeno[4,5-h]isochromen-5-yl acetate] |  |
|  |  |  |  |  |  | 1.994 | (1E,4S,4aR,5R,6aS,7S)-7-(formyloxy)-11-hydroxy-4-(methoxymethyl)-4a,6a-dimethyl-2,10-dioxo-1-(pyrrolidin-1-ylmethylene)-1,2,4,4a,5,6,6a,7,8,9,9a,10-dodecahydroindeno[4,5-h]isochromen-5-yl acetate [Compound 16] | TOR IC50 ([1]; Table 1): 8 µg/mL; MDA468 IC50 ([2]; Table 1): 0.28 µg/mL; DU145 IC50 ([3]; Table 1): 1.3 µg/mL; LNCaP IC50 ([4]; Table 1): 0.08 µg/mL; MDA435 IC50 ([5]; Table 1): 5.5 µg/mL |
|  |  |  |  |  |  | 0.607 | (1E,4S,4aR,5R,6aS,7S)-1-[(diallylamino)methylene]-7-(formyloxy)-11-hydroxy-4-(methoxymethyl)-4a,6a-dimethyl-2,10-dioxo-1,2,4,4a,5,6,6a,7,8,9,9a,10-dodecahydroindeno[4,5-h]isochromen-5-yl acetate [Compound 17] | TOR IC50 ([1]; Table 1): 1.3 µg/mL; MDA468 IC50 ([2]; Table 1): 0.5 µg/mL; DU145 IC50 ([3]; Table 1): 3 µg/mL; LNCaP IC50 ([4]; Table 1): 0.14 µg/mL; MDA435 IC50 ([5]; Table 1): 7 µg/mL |
| 0.728 | 5 (≈ 8.46 µM) |  | 1.45 (≈ 2.45 µM) |  |  | 0.028 | COCC1OC(=O)C(=CN(CCC#N)Cc2ccccc2)C2=C(O)C(=O)C3=C(C(OC(C)=O)CC4(C)C(O)CCC34)C21C (stereo not drawn) [Compound 41, Acetic acid 4-{[benzyl-(2-cyano-ethyl)-amino]-methylene}-6,17-dihydroxy-1-methoxymethyl-10,13-dimethyl-3,7-dioxo-1,3,4,7,10,11,12,13,14,15,16,17-dodecahydro-2-oxa-cyclopenta[a]phenanthren-11-yl ester] |  |
|  |  |  |  |  |  |  | COC[C@H]1OC(=O)/C(=C\NCCOCCOCCNC(=O)CCCC[C@H]2SC[C@H]3NC(=O)N[C@H]32)C2=C(O)C(=O)C3=C([C@H](OC(C)=O)C[C@@]4(C)C3CC[C@@H]4O)[C@]21C (stereo partly drawn) [Compound 51, (1Z,4S,4aR,5R,6aS,7S)-7,11-dihydroxy-4-(methoxymethyl)-4a,6a-dimethyl-2,10-dioxo-1-{12-oxo-16-[(3aR,4R,6aS)-2-oxohexahydro-1H-thieno[3,4-d]imidazol-4-yl]-5,8-dioxa-2,11-diazahexadec-1-ylidene}-1,2,4,4a,5,6,6a,7,8,9,9a,10-dodecahydroindeno[4,5-h]isochromen-5-yl acetate] | IC50 ([2]; Table 2): 30 µg/mL; IC50 ([4]; Table 2): 2.8 µg/mL; IC50 ([6]; Table 2): > 0.2 µg/mL |

| Compound | IC50 ([1]; Table 1) [µM] | IC50 ([2]; Table 1) [µg/mL] | IC50 ([3]; Table 1) [µg/mL] | IC50 ([4]; Table 1) [µg/mL] | IC50 ([5]; Table 1) [µg/mL] | IC50 ([6]; Table 1) [µg/mL] | PI3K FP IC50 [7] [µg/mL] | also measured |
| --- | --- | --- | --- | --- | --- | --- | --- | --- |
| CCCCN(C)/C=C1/C(=O)O[C@H](COC)[C@@]2(C)C1=C(O)C(=O)C1=C2[C@H](OC(C)=O)C[C@@]2(C)C1CC[C@@H]2O (stereo partly drawn) [Compound 8, (1E,4S,4aR,5R,6aS,7S)-1-{[butyl(methyl)amino]methylene}-7,11-dihydroxy-4-(methoxymethyl)-4a,6a-dimethyl-2,10-dioxo-1,2,4,4a,5,6,6a,7,8,9,9a,10-dodecahydroindeno[4,5-h]isochromen-5-yl acetate] | 8.31 | 0.6 | 2 | 0.09 | 5 | 0.1 |  | IC50 ([1]; Table 2): 9.08 µM; IC50 ([2]; Table 2): 0.9 µg/mL; IC50 ([3]; Table 2): 1.3 µg/mL; IC50 ([4]; Table 2): 0.12 µg/mL; IC50 ([5]; Table 2): 3.1 µg/mL |
